From ChEMBL document CHEMBL4002643, “Tubulin-binding dibenz[c,e]oxepines: Part 2. Structural variation and biological evaluation as tumour vasculature disrupting agents” (Bioorg Med Chem, 2017)

What was measured:
OVCAR-3 = assay: Cytotoxicity against human OVCAR3 cells assessed as growth inhibition after 48 hrs by SRB assay; format: functional; details: OVCAR-3, 48 h
MCF7 = assay: Cytotoxicity against human MCF7 cells assessed as growth inhibition after 48 hrs by SRB assay; format: functional; details: MCF7, 48 h
786-0 = assay: Cytotoxicity against human 786-0 cells assessed as growth inhibition after 48 hrs by SRB assay; format: functional; details: 786-0, 48 h
NCI-H522 = assay: Cytotoxicity against human NCI-H522 cells assessed as growth inhibition after 48 hrs by SRB assay; format: functional; details: NCI-H522, 48 h
T47D = assay: Cytotoxicity against human T47D cells assessed as growth inhibition after 48 hrs by SRB assay; format: functional
BT-549 = assay: Cytotoxicity against human BT549 cells assessed as growth inhibition after 48 hrs by SRB assay; format: functional; details: BT-549, 48 h
NCI-H23 = assay: Cytotoxicity against human NCI-H23 cells assessed as growth inhibition after 48 hrs by SRB assay; format: functional; details: NCI-H23, 48 h
RPMI-8226 = assay: Cytotoxicity against human RPMI8226 cells assessed as growth inhibition after 48 hrs by SRB assay; format: functional; details: RPMI-8226, 48 h
HCC 2998 = assay: Cytotoxicity against human HCC2998 cells assessed as growth inhibition after 48 hrs by SRB assay; format: functional; details: HCC 2998, 48 h
DU-145 = assay: Cytotoxicity against human DU145 cells assessed as growth inhibition after 48 hrs by SRB assay; format: functional; details: DU-145, 48 h
OVCAR-8 = assay: Cytotoxicity against human OVCAR8 cells assessed as growth inhibition after 48 hrs by SRB assay; format: functional; details: OVCAR-8, 48 h
CCRF-CEM = assay: Cytotoxicity against human CCRF-CEM cells assessed as growth inhibition after 48 hrs by SRB assay; format: functional
K562 = assay: Cytotoxicity against human K562 cells assessed as growth inhibition after 5 days by MTT assay; format: functional, cell-based; details: K562, 120 h
SF-268 = assay: Cytotoxicity against human SF268 cells assessed as growth inhibition after 48 hrs by SRB assay; format: functional; details: SF-268, 48 h
COLO 205 = assay: Cytotoxicity against human COLO205 cells assessed as growth inhibition after 48 hrs by SRB assay; format: functional; details: COLO 205, 48 h
SW-620 = assay: Cytotoxicity against human SW620 cells assessed as growth inhibition after 48 hrs by SRB assay; format: functional; details: SW-620, 48 h
M14 = assay: Cytotoxicity against human M14 cells assessed as growth inhibition after 48 hrs by SRB assay; format: functional; details: M14, 48 h
[1] = Inhibition of porcine tubulin assembly measured for 30 mins by UV/visible spectrophotometric method; design: species or system Sus scrofa
UO-31 = assay: Cytotoxicity against human UO31 cells assessed as growth inhibition after 48 hrs by SRB assay; format: functional; details: UO-31, 48 h
NCI-H226 = assay: Cytotoxicity against human NCI-H226 cells assessed as growth inhibition after 48 hrs by SRB assay; format: functional; details: NCI-H226, 48 h
NCI-H460 = assay: Cytotoxicity against human NCI-H460 cells assessed as growth inhibition after 48 hrs by SRB assay; format: functional; details: NCI-H460, 48 h
A498 = assay: Cytotoxicity against human A498 cells assessed as growth inhibition after 48 hrs by SRB assay; format: functional; details: A498, 48 h
UACC-62 = assay: Cytotoxicity against human UACC62 cells assessed as growth inhibition after 48 hrs by SRB assay; format: functional; details: UACC-62, 48 h
SK-MEL-2 = assay: Cytotoxicity against human SK-MEL-2 cells assessed as growth inhibition after 48 hrs by SRB assay; format: functional; details: SK-MEL-2, 48 h
IGROV-1 = assay: Cytotoxicity against human IGROV1 cells assessed as growth inhibition after 48 hrs by SRB assay; format: functional; details: IGROV-1, 48 h
MDA-MB-435 = assay: Cytotoxicity against human MDA-MB-435 cells assessed as growth inhibition after 48 hrs by SRB assay; format: functional; details: MDA-MB-435, 48 h
OVCAR-4 = assay: Cytotoxicity against human OVCAR4 cells assessed as growth inhibition after 48 hrs by SRB assay; format: functional; details: OVCAR-4, 48 h
SN12C = assay: Cytotoxicity against human SN12C cells assessed as growth inhibition after 48 hrs by SRB assay; format: functional
SK-MEL-5 = assay: Cytotoxicity against human SK-MEL-5 cells assessed as growth inhibition after 48 hrs by SRB assay; format: functional; details: SK-MEL-5, 48 h
Hs-578T = assay: Cytotoxicity against human Hs 578T cells assessed as growth inhibition after 48 hrs by SRB assay; format: functional
HCT-15 = assay: Cytotoxicity against human HCT15 cells assessed as growth inhibition after 48 hrs by SRB assay; format: functional; details: HCT-15, 48 h
LOX IMVI = assay: Cytotoxicity against human LOXIMVI cells assessed as growth inhibition after 48 hrs by SRB assay; format: functional
KM12 = assay: Cytotoxicity against human KM12 cells assessed as growth inhibition after 48 hrs by SRB assay; format: functional; details: KM12, 48 h
SK-MEL-28 = assay: Cytotoxicity against human SK-MEL-28 cells assessed as growth inhibition after 48 hrs by SRB assay; format: functional; details: SK-MEL-28, 48 h
U-251 = assay: Cytotoxicity against human U251 cells assessed as growth inhibition after 48 hrs by SRB assay; format: functional; details: U-251, 48 h
SF-539 = assay: Cytotoxicity against human SF539 cells assessed as growth inhibition after 48 hrs by SRB assay; format: functional; details: SF-539, 48 h
SK-OV-3 = assay: Cytotoxicity against human SKOV3 cells assessed as growth inhibition after 48 hrs by SRB assay; format: functional; details: SK-OV-3, 48 h
HOP-62 = assay: Cytotoxicity against human HOP62 cells assessed as growth inhibition after 48 hrs by SRB assay; format: functional; details: HOP-62, 48 h
NCI-H322M = assay: Cytotoxicity against human NCI-H322M cells assessed as growth inhibition after 48 hrs by SRB assay; format: functional
SF-295 = assay: Cytotoxicity against human SF295 cells assessed as growth inhibition after 48 hrs by SRB assay; format: functional; details: SF-295, 48 h
PC-3 = assay: Cytotoxicity against human PC3 cells assessed as growth inhibition after 48 hrs by SRB assay; format: functional; details: PC-3, 48 h
MDA-MB-468 = assay: Cytotoxicity against human MDA-MB-468 cells assessed as growth inhibition after 48 hrs by SRB assay; format: functional; details: MDA-MB-468, 48 h
UACC-257 = assay: Cytotoxicity against human UACC257 cells assessed as growth inhibition after 48 hrs by SRB assay; format: functional; details: UACC-257, 48 h
HL-60(TB) = assay: Cytotoxicity against human HL-60(TB) cells assessed as growth inhibition after 48 hrs by SRB assay; format: functional; details: HL-60, 48 h
SNB-75 = assay: Cytotoxicity against human SNB75 cells assessed as growth inhibition after 48 hrs by SRB assay; format: functional; details: SNB-75, 48 h
CAKI-1 = assay: Cytotoxicity against human Caki1 cells assessed as growth inhibition after 48 hrs by SRB assay; format: functional; details: CAKI-1, 48 h

COc1ccc2c(c1O)COCc1cc(OC)c(OC)c(OC)c1-2
GI50 (OVCAR-3): 210 nM | GI50 (MCF7): 70 nM | GI50 (786-0): 430 nM | GI50 (NCI-H522): 40 nM | GI50 (T47D): 33900 nM | GI50 (BT-549): 260 nM | GI50 (NCI-H23): 760 nM | GI50 (RPMI-8226): 320 nM | GI50 (HCC 2998): 320 nM | GI50 (DU-145): 60 nM | GI50 (OVCAR-8): 200 nM | GI50 (CCRF-CEM): 40 nM | IC50 (K562): 34000 nM | GI50 (SF-268): 90 nM | GI50 (COLO 205): 500 nM | GI50 (SW-620): 50 nM | GI50 (M14): 50 nM | IC50 [1]: 2200 nM | GI50 (UO-31): 14500 nM | GI50 (NCI-H226): 3470 nM | GI50 (NCI-H460): 310 nM | GI50 (A498): 3020 nM | GI50 (UACC-62): 1000 nM | GI50 (SK-MEL-2): 260 nM | GI50 (IGROV-1): 630 nM | GI50 (MDA-MB-435): 30 nM | GI50 (OVCAR-4): 710 nM | GI50 (SN12C): 210 nM | GI50 (SK-MEL-5): 40 nM | GI50 (Hs-578T): 40 nM | GI50 (HCT-15): 80 nM | GI50 (LOX IMVI): 80 nM | GI50 (KM12): 50 nM | GI50 (SK-MEL-28): 1580 nM | GI50 (U-251): 300 nM | GI50 (SF-539): 50 nM | GI50 (SK-OV-3): 70 nM | GI50 (HOP-62): 630 nM | GI50 (NCI-H322M): 520 nM | GI50 (SF-295): 270 nM | GI50 (PC-3): 280 nM | GI50 (MDA-MB-468): 220 nM | GI50 (UACC-257): > 100000 nM | GI50 (HL-60(TB)): 30 nM | GI50 (SNB-75): 70 nM | GI50 (CAKI-1): 830 nM
